Results reported in PMC7938888, “Antidepressant drugs act by directly binding to TRKB neurotrophin receptors” (Cell, 2021).

B1: BDNF: brain-derived neurotrophic factor, TRKB ligand (protein, UniProt P23560 19-247, looked up)
Neurotrophic factor BDNF …: APMKEANIRGQGGLAYPGVRTHGTLESVNGPKAGSRGLTSLADTFEHVIEELLDEDQKVRPNEENNKDADLYTSRVMLSSQVPLEPPLLFLLEEYKNYLDAANMSMRVRRHSDPARRGELSVCDSISEWVTAADKKTAVDMSGGTVTVLEKVPVSKGQLKQYFYETKCNPMGYTKEGCRGIDKRHWNSQCRTTQSYVRALTMDSKKRIGWRFIRIDTSCVCTLTIKRGR

Key:
[1] = system: GFP-TRKB.Y433F; assay: dSTORM/TIRF of GFP-TRKB.Y433F clusters on MG87.TRKB cells; assay type: cell-based, mouse; settings: BDNF 10 ng/ml, FLX 10 μM, CHOL 20 μM, KET 10 μM; 15 min
Description: For direct stochastic optical reconstruction microscopy (dSTORM) MG87.TRKB cells were grown on cell view 35mm dishes with glass bottom (Greiner) coated with poly-L-lysine (Sigma). […] Briefly, cells were fixed 24 hours post transfection with 4% PFA for 20 minutes, washed three times for 5 min with 1x PBS and incubated in blocking buffer (1% BSA, 0.1% gelatin, 5% goat serum, 0.1% Triton X-100 and 0.05% Tween-20 in PBS; all from Sigma) for 1 hour. The primary antibody against GFP (Abcam, #ab290) was diluted 1:100 and incubated overnight at +4°C, while the secondary antibody Alexa Fluor-conjugated goat-anti-rabbit 647 (Invitrogen) was diluted 1:500 and incubated at room temperature for 1 hour. The dishes were stored in +4°C in 1x PBS no longer than 48 hours before imaging.
During imaging, cells were maintained in blinking buffer (10% glucose, 0.07% cysteamine, 0.75 mg/ml glucose oxidase and 0.04 mg/ml catalase in 0.1 M Tris buffer, pH 7.8-8; all reagents from Sigma-Aldrich), which was freshly prepared and changed every hour. Imaging was performed in TIRF mode (TIRF angle 89.3 calibrated with ring-TIRF at least twice per sample) to specifically image the fluorophores at the plasma membrane. A GE DeltaVision OMX SR system (GE Healthcare) equipped with an Apo N 60x/1.49 oil objective and a sCMOS camera was used to acquire the images. The 640 nm diode laser was used at 100% of power to excite the Alexa 647 fluorophores while the 405 nm laser was adjusted until approximately 50% of power in order to maintain the blinking throughout the imaging session. For each cell, 35000 frames were acquired, and the localization map of single fluorophores was reconstructed with SoftWoRx 7.0 software (GE Healthcare). For the localization map, the first 1000 frames approximately were discarded and the reconstruction parameters were maintained identical for all the samples.
Reconstruction parameters: For the localization of all the blinking events in the dataset, the point spread function size factor was set at 1.550 with a local maximum factor of 0.05. Drift correction was adjusted dividing the frames into 20 groups. Tracking of the fluorophores was performed with a maximum localization precision of 100 nm without fiducial markers. The final localization map of the fluorophores identified was built with a reconstruction pixel size of 10 nm and localization precision set at 5 and 100 nm respectively for the minimum and the maximum, and a fluorophore persistence threshold set at 3 frames.
The analysis of the reconstructed images was performed in Fiji. Depending on the size of picture, 5 or 10 representative regions of interest (ROIs) of 2x1 μm were blindly chosen per cell and used for particle analysis of the TRKB-positive clusters. […]

[2] = system: GFP-TRKB.Y433F; assay: FRAP of GFP-TRKB.Y433F in dendritic spines of hippocampal neurons; assay type: cell-based, rat; settings: BDNF 20 ng/mL, FLX 1 μM, KET 10 μM; 15 min
Description: For the fluorescence recovery after photobleaching (FRAP) experiments, E18 rat embryo hippocampal cells were plated onto glass coverslips coated with poly-L-lysine (Sigma-Aldrich) in 4-well cell culture plates at a density of 200.000 cells/well. The cultures were incubated at +37°C in serum-free Neurobasal medium (supplemented with 2% B27, 1% L-glutamine and 1% ampicillin) for approximately 2 weeks (DIV 14-16), renewing half of the growth media weekly. Then, they were transfected with Lipofectamine 2000 (Invitrogen) in order to overexpress GFP-tagged TRKB constructs (TRKB.WT or TRKB.Y433F). The cultures were incubated with the transfection mix (per well: 50ul neurobasal medium, 1ul Lipofectamine 2000, 1ug plasmid DNA) in serum-free media for 1.5 hours, followed by 3x medium washes and returned to the original growth medium after that. The cells were left at +37°C o/n to overexpress the constructs ([Koskinen et al., 2012]). Next day, FRAP was performed with a confocal microscope (Zeiss LSM 710, Carl Zeiss AG) adapted for live cell imaging with a chamber set at +37°C and 5%CO2 (Zeiss Temp Module system, Carl Zeiss AG). Coverslips with the cultured hippocampal neurons were carefully transferred to 35mm Petri dishes with warm HBSS medium without phenol red or serum to avoid sources of background fluorescence. After a 10 minutes adaptation period in the microscope chamber to avoid focus drift caused by temperature fluctuations of the stage and objective, dendritic shafts or spines (spine head diameter = ∼1um) were localized with a 63x/0.90 NA dipping water objective. Picture format was 512x512 pixels. The nominal speed to capture images was set to 9 (pixel dwell 3.15 μseconds, taking approximately 0.5 s to finish a scan), and the pinhole aperture was set to completely open to obtain a strong fluorescent signal ([Koskinen et al., 2012]; [Zheng et al., 2011]). Once a region of interest (ROI) was selected with a circle that contained the whole spine, it was bleached to establish the FRAP baseline. […]

[3] = system: GFP-TRKB; assay: FRAP of GFP-TRKB in dendritic spines of hippocampal neurons; assay type: cell-based, rat; settings: BDNF 20 ng/mL, FLX 1 μM, KET 10 μM; 15 min pretreatment

Molecule	size of clusters of GFP-TRKB.Y433F at the plasma membrane [1]	fluorescence of GFP-TRKB.Y433F in dendritic spines after bleaching [2]	recovery of GFP-TRKB fluorescence in dendritic spines after bleaching [3]
CC(C)CCC[C@@H](C)[C@H]1CC[C@H]2[C@@H]3CC=C4C[C@@H](O)CC[C@]4(C)[C@H]3CC[C@]12C [CHOL, cholesterol]	not clusters of GFP-TRKB.Y433F mutants		
CNC1(c2ccccc2Cl)CCCCC1=O (stereo not shown) [KET, ketamine]	not clusters of GFP-TRKB.Y433F mutants	Neither BDNF, FLX, nor KET increased the fluorescence	promoted recovery of GFP-TRKB fluorescence in dendritic spines
CNCCC(Oc1ccc(C(F)(F)F)cc1)c1ccccc1 (stereo not shown) [FLX, fluoxetine]	not clusters of GFP-TRKB.Y433F mutants	Neither BDNF, FLX, nor KET increased the fluorescence	promoted recovery of GFP-TRKB fluorescence in dendritic spines
B1	not clusters of GFP-TRKB.Y433F mutants	Neither BDNF, FLX, nor KET increased the fluorescence	rapid recovery of GFP-TRKB fluorescence in spines
